Reference: US10377791B2, “Therapeutically active estratrienthiazole derivatives as inhibitors of 17 B-hydroxysteroid dehydrogenase, type 1” (FORENDO PHARMA LTD, priority 2013, dated 2019)
Read-outs that look alike come from different tables or passages of the source.

Key:
[1] = target: T1, recombinant human 17β-HSD1 (Homo sapiens, UniProt P14061); test: Inhibition of recombinant human 17β-HSD1; assay type: biochemical; settings: read-out: 17β-HDS1 Inhibition % at 1 μM
T1 construct: made in house; host or cells: Sd9 (Sf9) insect cells, baculovirus (Bac to Bac Expression System)
T1 sequence (P14061 1-328): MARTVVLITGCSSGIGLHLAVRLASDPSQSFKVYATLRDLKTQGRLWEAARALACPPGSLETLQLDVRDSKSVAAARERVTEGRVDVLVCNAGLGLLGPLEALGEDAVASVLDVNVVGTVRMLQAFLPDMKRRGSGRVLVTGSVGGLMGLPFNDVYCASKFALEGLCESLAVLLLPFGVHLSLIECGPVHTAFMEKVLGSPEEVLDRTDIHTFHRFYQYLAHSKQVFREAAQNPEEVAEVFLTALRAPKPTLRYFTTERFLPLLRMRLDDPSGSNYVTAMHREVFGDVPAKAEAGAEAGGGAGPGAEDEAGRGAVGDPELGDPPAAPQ
Experimental: Recombinant baculovirus was generated by the “Bac to Bac Expression System” (Invitrogen). Recombinant bacmid was transfected to Sd9 insect cells using “Cellfectin Reagent” (Invitrogen). 60 h later cells were harvested; the microsomal fraction was isolated as described by Puranen, T. J., Poutanen, M. H., Peltoketo, H. E., Vihko, P. T. and Vihko, R. K. (1994) Site-directed mutagenesis of the putative active site of human 17 β-hydroxysteroid dehydrogenase type 1. Biochem. J. 304: 289-293. Aliquots were stored frozen until determination of enzymatic activity.
Recombinant protein (1 μg/ml) was incubated in 20 mM KH2PO4 pH 7.4 with 30 nM estrone (including 800 000 cpm/ml of ^3H-estrone) and 1 mM NADPH for 30 min at RT, in the presence of the potential inhibitor at concentrations 1 μM or 0.1 μM. Inhibitor stock solutions were prepared in DMSO. Final concentration of DMSO was adjusted to 1% in all samples. The enzyme reaction was stopped by addition of 10% trichloroacetic acid (final concentration). Samples were centrifuged in a microtiter plate at 4000 rpm for 10 min. Supernatants were applied to reverse phase HPLC on a Waters Symmetry C18 column, equipped with a Waters Sentry Guard column. Isocratic HPLC runs were performed at RT at a flow rate of 1 ml/min in acetonitrile:water 48:52 as running solvent. Radioactivity was monitored in the eluate by a Packard Flow Scintillation Analyzer. Total radioactivity for estrone and estradiol were determined in each sample and percent conversion of estrone to estradiol was calculated according to the following formula:
(§1) [formula] Percent inhibition was calculated flowingly: % inhibition=100−% conversion

[2] = target: T2, recombinant human 17β-HSD2 (Homo sapiens, UniProt P37059); test: Inhibition of recombinant human 17β-HSD2; assay type: biochemical; settings: read-out: 17β-HSD2 Inhibition % at 1 μM
T2 construct: made in house; host or cells: Sd9 (Sf9) insect cells, baculovirus (Bac to Bac Expression System)
T2 sequence (P37059 1-387): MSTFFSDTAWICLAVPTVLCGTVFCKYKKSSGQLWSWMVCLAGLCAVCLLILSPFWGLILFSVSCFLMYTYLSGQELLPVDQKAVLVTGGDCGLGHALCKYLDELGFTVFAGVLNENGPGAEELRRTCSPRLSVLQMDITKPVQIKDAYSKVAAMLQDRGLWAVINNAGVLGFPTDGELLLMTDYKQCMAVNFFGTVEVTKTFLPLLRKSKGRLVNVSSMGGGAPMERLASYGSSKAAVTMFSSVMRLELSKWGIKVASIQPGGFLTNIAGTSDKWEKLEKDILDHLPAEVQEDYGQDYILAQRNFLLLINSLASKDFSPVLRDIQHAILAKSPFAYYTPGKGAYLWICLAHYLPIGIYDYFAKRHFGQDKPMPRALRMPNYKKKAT
Experimental: Similarly to 17β-HSD1 the Recombinant baculovirus was generated by the “Bac to Bac Expression System” (Invitrogen). Recombinant bacmid was transfected to Sd9 insect cells using “Cellfectin Reagent” (Invitrogen). 60 h later cells were harvested and supernatant were fractionated by the following protocol: • cells were dissolved into 40 ml of A-buffer (40 mM TRIS, pH8.0, 20% glycerol, 20 μM NAD, 0.4 mM PMSF, 150 mM NaCl, 0.5% dodecyl-β-maltoside+protease inhibitor cocktail) • cells were sonicated • lysate was incubated on ice for 15 min • lysate was centrifuged 5000 rpm 15 min, +4° C. • centrifugation of the supernatant 180 000 g 30 min, +4° C. • pellet was dissolved into 8 ml of A-buffer • not resuspended material was removed by centrifugation 5000 rpm 15 min, +4° C. • the clear supernatant was divided into 100 μl aliquots and were stored frozen until determination of enzymatic activity.
The amount of 17β-HSD2 was analysed by immunoblotting and total protein concentration of each extract batch was determined.
Recombinant protein (4 μg/ml) was incubated in 20 mM KH2PO4 pH 8.5 with 50 nM estradiol (including 800 000 cpm/ml of ^3H-estradiol) and 1 mM NADH for 30 min at RT, in the presence of the potential inhibitor at concentrations 1 μM or 0.1 μM. Inhibitor stock solutions were prepared in DMSO. Final concentration of DMSO was adjusted to 1% in all samples. The enzyme reaction was stopped by addition of 10% trichloroacetic acid (final concentration). Samples were centrifuged in a microtiter plate at 4000 rpm for 10 min. Supernatants were applied to reverse phase HPLC on a Waters Symmetry C18 column, equipped with a Waters Sentry Guard column. Isocratic HPLC runs were performed at RT at a flow rate of 1 ml/min in acetonitrile:water 48:52 as running solvent. Radioactivity was monitored in the eluate by a Packard Flow Scintillation Analyzer. Total radioactivity for estrone and estradiol were determined in each sample and percent conversion of estradiol to estrone was calculated according to the following formula:
as §1

[3] = inhibitor at 1 μM, 30 nM estrone, 1 mM NADPH, 30 min at RT
[4] = inhibitor at 1 μM, 50 nM estradiol, 1 mM NADH, 30 min at RT

Compound | inhibition at 1 µM [1, 3] | inhibition at 1 µM [2, 4] | inhibition at 1 µM [1] | inhibition at 1 µM [2]
Cc1ccc(S(=O)(=O)Oc2ccc3c(c2)CCC2C3CC[C@]3(C)C(=O)C[C@@H](CCC(=O)Nc4ncc(C)s4)C23)cc1 (stereo partly drawn) [Compound 27, Toluene-4-sulphonic acid (13S,15R)-13-methyl-15-[2-(5-methylthiazol-2-ylcarbamoyl)-ethyl]-17-oxo-7,8,9,11,12,13,14,15,16,17-decahydro-6H-cyclopenta[a]phenanthren-3-yl ester] | 81% | 5% | – | –
Cc1cnc(NC(=O)CC[C@@H]2CC(=O)[C@@]3(C)CCC4c5cc(C(C)(C)C)c(O)cc5CCC4C23)s1 (stereo partly drawn) [Compound 31, 3-((13S,15R)-2-(tert-butyl)-3-hydroxy-13-methyl-17-oxo-7,8,9,11,12,13,14,15,16,17-decahydro-6H-cyclopenta[a]phenanthren-15-yl)-N-(5-methylthiazol-2-yl)propanamide] | 87% | 12% | – | –
Cc1cnc(NC(=O)CC[C@@H]2CC(=O)[C@@]3(C)CCC4c5cc(C(C)C)c(O)cc5CCC4C23)s1 (stereo partly drawn) [Compound 32, 3-((13S,15R)-3-hydroxy-2-isopropyl-13-methyl-17-oxo-7,8,9,11,12,13,14,15,16,17-decahydro-6H-cyclopenta[a]phenanthren-15-yl)-N-(5-methylthiazol-2-yl)propanamide] | 84% | 1% | – | –
COc1cc2c(cc1C(C)=O)C1CC[C@]3(C)C(=O)C[C@@H](CCC(=O)Nc4ncc(C)s4)C3C1CC2 (stereo partly drawn) [Compound 33, 3-((13S,15R)-2-acetyl-3-methoxy-13-methyl-17-oxo-7,8,9,11,12,13,14,15,16,17-decahydro-6H-cyclopenta[a]phenanthren-15-yl)-N-(5-methylthiazol-2-yl)propanamide] | 71% | 3% | – | –
Cc1cnc(NC(=O)CC[C@@H]2CC(=O)[C@@]3(C)CCC4c5cc([N+](=O)[O-])c(O)cc5CCC4C23)s1 (stereo partly drawn) [Compound 34, 3-((13S,15R)-3-hydroxy-13-methyl-2-nitro-17-oxo-7,8,9,11,12,13,14,15,16,17-decahydro-6H-cyclopenta[a]phenanthren-15-yl)-N-(5-methylthiazol-2-yl)propanamide] | 91% | 10% | – | –
Cc1cnc(NC(=O)CC[C@@H]2CC(=O)[C@@]3(C)CCC4c5cc([N+](=O)[O-])c(O)c([N+](=O)[O-])c5CCC4C23)s1 (stereo partly drawn) [Compound 36, 3-((13S,15R)-3-hydroxy-13-methyl-2,4-dinitro-17-oxo-7,8,9,11,12,13,14,15,16,17-decahydro-6H-cyclopenta[a]phenanthren-15-yl)-N-(5-methylthiazol-2-yl)propanamide] | – | – | 87% | 33%
Cc1cnc(NC(=O)CC[C@@H]2CC(=O)[C@@]3(C)CCC4c5cc(N)c(O)cc5CCC4C23)s1 (stereo partly drawn) [Compound 37, 3-((13S,15R)-2-amino-3-hydroxy-13-methyl-17-oxo-7,8,9,11,12,13,14,15,16,17-decahydro-6H-cyclopenta[a]phenanthren-15-yl)-N-(5-methylthiazol-2-yl)propanamide] | 88% | 4% | – | –
Cc1cnc(NC(=O)CC[C@@H]2CC(=O)[C@@]3(C)CCC4c5ccc(O)c(N)c5CCC4C23)s1 (stereo partly drawn) [Compound 38, 3-((13S,15R)-4-amino-3-hydroxy-13-methyl-17-oxo-7,8,9,11,12,13,14,15,16,17-decahydro-6H-cyclopenta[a]phenanthren-15-yl)-N-(5-methylthiazol-2-yl)propanamide] | 87% | 9% | – | –
Cc1cnc(NC(=O)CC[C@@H]2CC(=O)[C@@]3(C)CCC4c5ccc(OS(C)(=O)=O)c([N+](=O)[O-])c5CCC4C23)s1 (stereo partly drawn) [Compound 39, (13S,15R)-13-methyl-15-(3-((5-methylthiazol-2-yl)amino)-3-oxopropyl)-4-nitro-17-oxo-7,8,9,11,12,13,14,15,16,17-decahydro-6H-cyclopenta[a]phenanthren-3-yl methanesulfonate] | 96% | 1% | – | –
Cc1cnc(NC(=O)CC[C@@H]2CC(=O)[C@@]3(C)CCC4c5ccc(OS(C)(=O)=O)c(N)c5CCC4C23)s1 (stereo partly drawn) [Compound 40, (13S,15R)-4-amino-13-methyl-15-(3-((5-methylthiazol-2-yl)amino)-3-oxopropyl)-17-oxo-7,8,9,11,12,13,14,15,16,17-decahydro-6H-cyclopenta[a]phenanthren-3-yl methanesulfonate] | 75% | 1% | – | –
Cc1cnc(NC(=O)CC[C@@H]2CC(=O)[C@@]3(C)CCC4c5cc(CN6CCOCC6)c(O)cc5CCC4C23)s1 (stereo partly drawn) [Compound 42, 3-((13S,15R)-3-hydroxy-13-methyl-2-(morpholinomethyl)-17-oxo-7,8,9,11,12,13,14,15,16,17-decahydro-6H-cyclopenta[a]phenanthren-15-yl)-N-(5-methylthiazol-2-yl)propanamide] | 90% | 0% | – | –
Cc1cnc(NC(=O)CC[C@@H]2CC(=O)[C@@]3(C)CCC4c5cc(CN6CCOCC6)c(O)c([N+](=O)[O-])c5CCC4C23)s1 (stereo partly drawn) [Compound 43, 3-((13S,15R)-3-hydroxy-13-methyl-2-(morpholinomethyl)-4-nitro-17-oxo-7,8,9,11,12,13,14,15,16,17-decahydro-6H-cyclopenta[a]phenanthren-15-yl)-N-(5-methylthiazol-2-yl)propanamide] | 94% | 0% | – | –
Cc1cnc(NC(=O)CC[C@@H]2CC(=O)[C@@]3(C)CCC4c5cc(CN(C)C)c(O)cc5CCC4C23)s1 (stereo partly drawn) [Compound 44, 3-((13S,15R)-2-((dimethylamino)methyl)-3-hydroxy-13-methyl-17-oxo-7,8,9,11,12,13,14,15,16,17-decahydro-6H-cyclopenta[a]phenanthren-15-yl)-N-(5-methylthiazol-2-yl)propanamide] | 91% | 2% | – | –
Cc1cnc(NC(=O)CC[C@@H]2CC(=O)[C@@]3(C)CCC4c5cc(CN6CCCC6)c(O)cc5CCC4C23)s1 (stereo partly drawn) [Compound 45, 3-((13S,15R)-3-hydroxy-13-methyl-17-oxo-2-(pyrrolidin-1-ylmethyl)-7,8,9,11,12,13,14,15,16,17-decahydro-6H-cyclopenta[a]phenanthren-15-yl)-N-(5-methylthiazol-2-yl)propanamide] | 83% | 0% | – | –
